# Laboratory results as given in article PMC6613932 (Bioorganic & medicinal chemistry letters, 2018).
# Target: 5-HT2AR (Homo sapiens, UniProt P28223)
# Assay: Inhibition of 5-HT
# Type: cell-based
# Conditions: inhibition of 1 μM 5-HT-evoked Cai2+ release; compared with parent (+)-M100907
# Sequence of 5-HT2AR (P28223 whole entry): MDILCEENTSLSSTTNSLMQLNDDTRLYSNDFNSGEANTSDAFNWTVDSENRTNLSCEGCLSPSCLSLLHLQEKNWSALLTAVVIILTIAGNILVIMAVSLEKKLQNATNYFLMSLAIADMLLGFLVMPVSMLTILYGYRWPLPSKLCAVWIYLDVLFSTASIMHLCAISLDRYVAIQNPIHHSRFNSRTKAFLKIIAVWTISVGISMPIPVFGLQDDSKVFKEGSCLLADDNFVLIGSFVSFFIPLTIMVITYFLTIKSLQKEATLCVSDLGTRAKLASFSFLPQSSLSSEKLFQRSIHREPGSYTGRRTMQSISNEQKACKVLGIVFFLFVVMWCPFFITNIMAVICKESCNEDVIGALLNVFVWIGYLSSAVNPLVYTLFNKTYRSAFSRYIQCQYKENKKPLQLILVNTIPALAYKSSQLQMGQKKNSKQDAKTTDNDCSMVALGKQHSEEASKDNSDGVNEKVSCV
row,SMILES,antagonist activity / potency in words
1,COc1c(OCCOCCN=[N+]=[N-])cccc1[C@H](O)C1CCN(CCc2ccc(F)cc2)CC1 [Compound 4],retained antagonist activity
2,C#CCOCCOCCOc1cccc([C@H](O)C2CCN(CCc3ccc(F)cc3)CC2)c1OC [Compound 5],slightly lower potency
3,COc1c(OCCOCCOc2cn(CCOCCOc3cccc([C@H](O)C4CCN(CCc5ccc(F)cc5)CC4)c3OC)nn2)cccc1[C@H](O)C1CCN(CCc2ccc(F)cc2)CC1 [Compound 15],slightly lower potency
